Source: patent US20240368185A1, “MACROCYCLIC AZOLOPYRIDINES” (Fulcrum Therapeutics, Inc., priority 2021, published 2024)
In brackets after ≈: the same amount, converted by molar mass. Blank lines part the entries; values can stand above or below the compound they belong to.

Experiments:
[1] = Dynamic vapor sorption (DVS) analysis; assay type: physicochemical; settings: between about 2 to about 92% relative humidity (RH) at 25° C.
Protocol: Dynamic vapor sorption (DVS) analysis was performed using a DVS Intrinsic 1. The sample (25 mg) was loaded into a sample pan, suspended from a microbalance and exposed to a humidified stream of nitrogen gas. The sample was held for a minimum of 5 min at each level and only progressed to the next humidity level if there was <0.002% change in weight between measurements (interval: 60 seconds) or 240 min had elapsed.

physchem [2] = settings: organic solvent or mixture, thermodynamic from solid
Protocol: (§1) An abbreviated polymorph/solvate screen and approximate solubility determination were performed utilizing each class III solvent and several class II solvents as listed under ICH Guidelines Q3C. […] Form P was chosen as the target polymorph for crystallization.

physchem [3] = assay type: physicochemical; settings: organic solvent or mixture, thermodynamic from solid
Protocol: Crystalline, Form V material of (S)-12-fluoro-4-(2-methylpyridin-3-yl)-7a,8,13,14-tetrahydro-7H-[1,2,4]triazolo[4′,3′:1,6]pyrido[3,2-b]benzofuro[4,3-fg][1,4]oxazonine, free base, was prepared as follows. About 12 mg of Form P material was loaded into a 2 mL vial. […] The solution was stirred overnight and the next day a slurry was observed. The slurry solids were collected and analyzed by XRPD.

[4] = Particle size distribution (PSD); assay type: physicochemical
Protocol: Several other Experiments (Experiment 2, Experiment 3, Experiment 4, Experiment 5, Experiment 7, and Experiment 8) were performed to study the effect of seed loading, seed size and scale on particle size of final product.
The material as received was characterized by X-Ray Powder Diffraction (XRPD), Polarized Light Microscopy (PLM), Particle Size Distribution (PSD), Thermo-Gravimetric Analysis (TGA) and Differential Scanning Calorimetry (DSC).
In the second batch, crystals with rod morphology and a length of greater than 200 μm were observed. Two final scaled up batches were performed. A 43 gram batch was produced as small seeds and a 22 gram batch was produced using the first 10 gram batch (Crystallization 1) as large seeds to assess the impact of different size seeds on the process. Scanning electron microscopy (SEM) was used to compliment the polarized light microscope (PLM) and particle size distribution (PSD) measurements.

[5] = Wet-milling study (ball mill, 30 s, 1 vol. water); assay type: physicochemical; settings: milled with 1 vol. water
[6] = 24 h
Protocol: as §1

physchem [7] = settings: 70 °C, organic solvent or mixture, thermodynamic from solid
Protocol: as §1

[8] = Salt screening: XRPD form after exposure to 95%+ relative humidity for one day; assay type: physicochemical; parameters: key: Am = amorphous; settings: solid dried under vacuum at 50° C., then 95%+ relative humidity for one day
Protocol: A stock solution of Form P material of (S)-12-fluoro-4-(2-methylpyridin-3-yl)-7a,8,13,14-tetrahydro-7H-[1,2,4]triazolo[4′,3′:1,6]pyrido[3,2-b]benzofuro[4,3-fg][1,4]oxazonine, free base, was prepared in 2,2,2-trifluoroethanol (50.8 mg/mL). Stock solutions of counter ion were prepared in EtOH.
Salt formation was carried out at room temperature in 2 mL vials. 25.4 mg of Form P free base material (500 μL stock solution) and 1.1 equivalents of counter ion were added to each vial. Solvent was allowed to evaporate at 40° C. overnight with stirring. […] These vials were kept on the hotplate to continue evaporating (temperature increased to 50° C.), while the more-dry samples were dried further under vacuum for 3 hours at 50° C. The samples still containing solvent at the end of the day were left to stir at 30° C. over the weekend to finish evaporating the solvent. These samples were dried further under vacuum for 3 hours at 50° C.
Approximately 20 volumes of solvent (0.5 mL) was added to each vial containing the dried solids. The three solvents selected were EtOH, EtOAc, and IPA:water (9:1 vol). Once solvents were added, the mixtures (or solutions) were stirred at room temperature. When slurries were formed, the solids were filtered for XRPD analysis.
XRPD analysis was done in three stages. XRPD of the wet cake was done for all collected samples. […]

[9] = assay type: physicochemical
Protocol: Crystalline, Form W material of (S)-12-fluoro-4-(2-methylpyridin-3-yl)-7a,8,13,14-tetrahydro-7H-[1,2,4]triazolo[4′,3′:1,6]pyrido[3,2-b]benzofuro[4,3-fg][1,4]oxazonine, free base, was prepared as follows. About 2.5 mg of (S)-12-fluoro-4-(2-methylpyridin-3-yl)-7a,8,13,14-tetrahydro-7H-[1,2,4]triazolo[4′,3′:1,6]pyrido[3,2-b]benzofuro[4,3-fg][1,4]oxazonine, maleic acid salt (Form 7-A), was loaded into a vial. 1 mL of water was added, and the mixture was warmed to 37° C. Additional water was added to the slurry, which thinned considerably and then appeared to start precipitating a fine white solid. This was viewed as likely disproportionation and additional water was not added. The mixture was stirred overnight, and the following day the fine solid suspended in the solution was collected and analyzed by XRPD. It was observed that the maleic acid salt had disproportionated over the slurry time.

[10] = Crystallization 1, 10 gram scale, milled Form P as seeds
[11] = Crystallization 2, 10 gram scale, crystals from Crystallization 1 as seeds
[12] = Experiment 1, initial process, 0.5 w/w % seed
[13] = Experiment 2, effect of seed loading, 0.5 w/w % milled seed
[14] = Experiment 3, effect of seed loading, 3.0 w/w % milled seed
[15] = Experiment 4, effect of seed size, 1.0 w/w % large seed
[16] = Experiment 5, effect of seed size, 1.0 w/w % milled seed
[17] = Experiment 6, wet milling study, after milling
[18] = Experiment 6, wet milling study, before milling
[19] = Experiment 7, effect of scale, 3 g scale
[20] = Experiment 8, effect of scale, 10 g scale

DVS reversable total mass change [1]: about 10.3 wt. %
Compound: Cc1ncccc1-c1cc2c(n3cnnc13)NCc1c(F)ccc3c1C(CO3)CO2 (stereo in doubt) [Form E, (S)-12-fluoro-4-(2-methylpyridin-3-yl)-7a,8,13,14-tetrahydro-7H-[1,2,4]triazolo[4′,3′:1,6]pyrido[3,2-b]benzofuro[4,3-fg][1,4]oxazonine]

DVS reversable total mass change [1]: about 7.6 wt. %
Compound: Cc1ncccc1-c1cc2c(n3cnnc13)NCc1c(F)ccc3c1C(CO3)CO2 (stereo in doubt) [Form H, (S)-12-fluoro-4-(2-methylpyridin-3-yl)-7a,8,13,14-tetrahydro-7H-[1,2,4]triazolo[4′,3′:1,6]pyrido[3,2-b]benzofuro[4,3-fg][1,4]oxazonine]

solubility (physchem [2]): > 10000 µg/mL
solubility (physchem [3]): 167 to 333 mg/mL (≈ 414 to 825 mM)
Particle Size Distribution D(10) [4, 10]: 37.2 µm
Particle Size Distribution D(50) [4, 10]: 115 µm
Particle Size Distribution D(90) [4, 10]: 196 µm
Particle Size Distribution D(10) [4, 11]: 23.4 µm
Particle Size Distribution D(50) [4, 11]: 126 µm
Particle Size Distribution D(90) [4, 11]: 634 µm
Particle Size Distribution (PSD) D10 [4, 12]: 19 μm
Particle Size Distribution (PSD) D50 [4, 12]: 100 μm
Particle Size Distribution (PSD) D90 [4, 12]: 213 μm
Particle Size Distribution (PSD) D10 [4, 13]: 17 μm
Particle Size Distribution (PSD) D50 [4, 13]: 93 μm
Particle Size Distribution (PSD) D90 [4, 13]: 187 μm
Particle Size Distribution (PSD) D10 [4, 14]: 7 μm
Particle Size Distribution (PSD) D50 [4, 14]: 31 μm
Particle Size Distribution (PSD) D90 [4, 14]: 83 μm
Particle Size Distribution (PSD) D10 [4, 15]: 28 μm
Particle Size Distribution (PSD) D50 [4, 15]: 90 μm
Particle Size Distribution (PSD) D90 [4, 15]: 171 μm
Particle Size Distribution (PSD) D10 [4, 16]: 15 μm
Particle Size Distribution (PSD) D50 [4, 16]: 82 μm
Particle Size Distribution (PSD) D90 [4, 16]: 164 μm
Particle Size Distribution (PSD) D10 [4, 17]: 11 μm
Particle Size Distribution (PSD) D50 [4, 17]: 37 μm
Particle Size Distribution (PSD) D90 [4, 17]: 95 μm
Particle Size Distribution (PSD) D10 [4, 18]: 32 μm
Particle Size Distribution (PSD) D50 [4, 18]: 199 μm
Particle Size Distribution (PSD) D90 [4, 18]: 372 μm
Particle Size Distribution (PSD) D10 [4, 19]: 11 μm
Particle Size Distribution (PSD) D50 [4, 19]: 48 μm
Particle Size Distribution (PSD) D90 [4, 19]: 113 μm
Particle Size Distribution (PSD) D10 [4, 20]: 11 μm
Particle Size Distribution (PSD) D50 [4, 20]: 45 μm
Particle Size Distribution (PSD) D90 [4, 20]: 121 μm
D10 ([4]; starting material as received): 1.99 μm
D50 ([4]; starting material as received): 3.33 μm
D90 ([4]; starting material as received): 5.35 μm
DVS reversable total mass change [1]: about 0.53 wt. %
purity after slurry (potential degradation) [6]: 99.9%
solubility (physchem [7]): 56.7 mg/mL (≈ 140 mM)
Compound: Cc1ncccc1-c1cc2c(n3cnnc13)NCc1c(F)ccc3c1C(CO3)CO2 (stereo in doubt) [Form P, (S)-12-fluoro-4-(2-methylpyridin-3-yl)-7a,8,13,14-tetrahydro-7H-[1,2,4]triazolo[4′,3′:1,6]pyrido[3,2-b]benzofuro[4,3-fg][1,4]oxazonine]
crystallinity and solid form purity after wet milling [5]: maintained crystallinity and solid form purity

XRPD Form humidity ([8]; slurry solvent EtOAc): Am
XRPD Form humidity ([8]; slurry solvent EtOH): Am
Compound: (S)-12-fluoro-4-(2-methylpyridin-3-yl)-7a,8,13,14-tetrahydro-7H-[1,2,4]triazolo[4′,3′:1,6]pyrido[3,2-b]benzofuro[4,3-fg][1,4]oxazonine [Benzenesulfonic acid (1)]

DVS reversable total mass change [1]: about 3.1 wt. %
Compound: (S)-12-fluoro-4-(2-methylpyridin-3-yl)-7a,8,13,14-tetrahydro-7H-[1,2,4]triazolo[4′,3′:1,6]pyrido[3,2-b]benzofuro[4,3-fg][1,4]oxazonine [Form 5-A]

stability of salt in water slurry [9]: disproportionated
Compound: (S)-12-fluoro-4-(2-methylpyridin-3-yl)-7a,8,13,14-tetrahydro-7H-[1,2,4]triazolo[4′,3′:1,6]pyrido[3,2-b]benzofuro[4,3-fg][1,4]oxazonine [Form 7-A]

DVS reversable total mass change [1]: about 0.82 wt. %
Compound: (S)-12-fluoro-4-(2-methylpyridin-3-yl)-7a,8,13,14-tetrahydro-7H-[1,2,4]triazolo[4′,3′:1,6]pyrido[3,2-b]benzofuro[4,3-fg][1,4]oxazonine [Form 8-B]

DVS reversable total mass change [1]: about 1.4 wt. %
Compound: (S)-12-fluoro-4-(2-methylpyridin-3-yl)-7a,8,13,14-tetrahydro-7H-[1,2,4]triazolo[4′,3′:1,6]pyrido[3,2-b]benzofuro[4,3-fg][1,4]oxazonine [Form 10-A]

DVS reversable total mass change [1]: about 0.97 wt. %
Compound: (S)-12-fluoro-4-(2-methylpyridin-3-yl)-7a,8,13,14-tetrahydro-7H-[1,2,4]triazolo[4′,3′:1,6]pyrido[3,2-b]benzofuro[4,3-fg][1,4]oxazonine [Form 13-A]
